The record followed here is patent US10160747B2, “Compounds and methods for kinase modulation, and indications therefor” (Plexxikon Inc., priority 2016, dated 2018).

For orientation: pIC50 means −log10 of the IC50, conventionally taken in molar units.

Assay [1] deals with T1, c-KIT (Homo sapiens, UniProt P10721).
T1 construct: purchased Millipore 14-559K
Kind of assay: c-KIT recombinant enzyme kinase assay (AlphaScreen). It counts as biochemical. As to conditions: 100 ATP, 8 pt. A digest of the protocol: (§1)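 Enzyme plus biotinylated poly(Glu4-Tyr) substrate (30 nM) mixed with compound, then ATP added. Donor beads went in for 20 min at room temperature, then PY20 acceptor beads for 60 min. AlphaScreen read; ATP was 10 μM for FLT3-ITD/D835Y and 100 μM for c-KIT.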
In general terms: Alpha assays give light when donor and acceptor beads are brought close together.

The target of assay [2] is T2, FLT3-D835Y (Homo sapiens, UniProt P36888, D835Y).
T2 construct: purchased Invitrogen PV3967
T2 sequence (P36888 27-993 D835Y): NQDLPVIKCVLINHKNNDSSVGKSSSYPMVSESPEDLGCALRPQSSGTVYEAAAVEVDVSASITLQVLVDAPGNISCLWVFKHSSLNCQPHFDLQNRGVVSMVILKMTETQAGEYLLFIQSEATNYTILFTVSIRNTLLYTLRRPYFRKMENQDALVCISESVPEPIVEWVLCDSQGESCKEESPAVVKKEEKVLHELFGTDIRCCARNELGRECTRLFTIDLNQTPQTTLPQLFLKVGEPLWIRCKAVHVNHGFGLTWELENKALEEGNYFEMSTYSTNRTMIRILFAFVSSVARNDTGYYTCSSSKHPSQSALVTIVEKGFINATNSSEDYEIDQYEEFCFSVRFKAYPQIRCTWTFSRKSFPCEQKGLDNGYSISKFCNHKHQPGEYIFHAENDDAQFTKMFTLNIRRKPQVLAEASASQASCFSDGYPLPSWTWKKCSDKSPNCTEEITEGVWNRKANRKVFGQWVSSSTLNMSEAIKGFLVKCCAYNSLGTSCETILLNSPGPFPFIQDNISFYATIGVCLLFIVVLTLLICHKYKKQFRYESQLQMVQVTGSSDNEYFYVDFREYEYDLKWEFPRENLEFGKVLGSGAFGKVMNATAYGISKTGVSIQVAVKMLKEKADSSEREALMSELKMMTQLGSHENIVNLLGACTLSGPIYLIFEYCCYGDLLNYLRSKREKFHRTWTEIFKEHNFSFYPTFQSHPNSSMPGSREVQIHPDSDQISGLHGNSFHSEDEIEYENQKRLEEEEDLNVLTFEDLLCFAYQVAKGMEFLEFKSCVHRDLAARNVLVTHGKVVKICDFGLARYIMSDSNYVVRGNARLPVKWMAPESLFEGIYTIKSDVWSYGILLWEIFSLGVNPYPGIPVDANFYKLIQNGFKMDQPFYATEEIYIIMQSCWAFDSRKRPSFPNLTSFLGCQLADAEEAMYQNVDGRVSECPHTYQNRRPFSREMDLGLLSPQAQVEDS
The assay can be described thus: FLT3-D835Y recombinant enzyme kinase assay (AlphaScreen). It counts as biochemical. The following applies: 8 pt, GMean. A digest of the protocol: as §1

The structures appear in SMILES notation. pIC50: −log10 of the molar value.

T1 sequence (P10721 26-976): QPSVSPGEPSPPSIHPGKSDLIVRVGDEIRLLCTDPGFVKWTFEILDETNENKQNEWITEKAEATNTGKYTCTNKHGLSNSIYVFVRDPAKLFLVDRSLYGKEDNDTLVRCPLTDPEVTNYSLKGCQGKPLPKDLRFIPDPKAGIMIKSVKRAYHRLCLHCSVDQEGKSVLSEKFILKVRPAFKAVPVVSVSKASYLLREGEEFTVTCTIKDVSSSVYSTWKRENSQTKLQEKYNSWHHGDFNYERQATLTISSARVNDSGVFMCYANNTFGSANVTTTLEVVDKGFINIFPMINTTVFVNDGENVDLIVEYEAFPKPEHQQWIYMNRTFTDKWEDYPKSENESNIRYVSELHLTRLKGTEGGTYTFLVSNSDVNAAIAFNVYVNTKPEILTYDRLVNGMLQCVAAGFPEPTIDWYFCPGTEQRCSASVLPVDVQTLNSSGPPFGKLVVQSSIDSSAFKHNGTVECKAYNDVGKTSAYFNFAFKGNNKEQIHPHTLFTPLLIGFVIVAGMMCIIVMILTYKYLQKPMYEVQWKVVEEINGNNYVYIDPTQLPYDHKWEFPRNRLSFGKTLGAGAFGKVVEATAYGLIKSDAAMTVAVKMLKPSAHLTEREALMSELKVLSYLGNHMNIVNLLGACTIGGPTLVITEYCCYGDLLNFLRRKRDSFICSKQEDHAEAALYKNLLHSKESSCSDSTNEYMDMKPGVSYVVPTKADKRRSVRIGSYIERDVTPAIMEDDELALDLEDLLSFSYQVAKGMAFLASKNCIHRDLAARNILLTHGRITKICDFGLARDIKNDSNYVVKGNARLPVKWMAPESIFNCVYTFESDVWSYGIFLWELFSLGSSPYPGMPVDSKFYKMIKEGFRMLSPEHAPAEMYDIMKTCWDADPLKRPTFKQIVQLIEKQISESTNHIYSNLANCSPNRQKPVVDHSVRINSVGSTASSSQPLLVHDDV

`COc1ncc(NC(=O)Cc2ccc(-c3cnc(Nc4cn[nH]c4C)nc3)cc2)cc1C(F)(F)F` [Compound P-0221, N-[6-methoxy-5-(trifluoromethyl)-3-pyridyl]-2-[4-[2-[(5-methyl-1H-pyrazol-4-yl)amino]pyrimidin-5-yl]phenyl]acetamide]: the pIC50 in assay [1] and in assay [2] was 5.00 to 10.00 each time.
As for `COCCn1cc(Nc2ncc(-c3ccc(CC(=O)Nc4cc(C(F)(F)F)ccn4)cc3)cn2)cn1` [Compound P-0222, 2-[4-[2-[[1-(2-methoxyethyl)pyrazol-4-yl]amino]pyrimidin-5-yl]phenyl]-N-[4-(trifluoromethyl)-2-pyridyl]acetamide], the pIC50 in assay [1] and in assay [2] was 5.00 to 10.00 in each case.
On to `Cc1nn(C)cc1Nc1ncc(-c2ccc(CC(=O)Nc3cnc(C)c(C(F)(F)F)c3)cc2)cn1` [Compound P-0228, 2-[4-[2-[(1,3-dimethylpyrazol-4-yl)amino]pyrimidin-5-yl]phenyl]-N-[6-methyl-5-(trifluoromethyl)-3-pyridyl]acetamide], for which the pIC50 in assay [1] and in assay [2] was 5.00 to 10.00 in each case.
Turning to `Cc1ncc(NC(=O)Cc2ccc(-c3cnc(Nc4cnn(C)c4C)nc3)cc2)cc1C(F)(F)F` [Compound P-0229, 2-[4-[2-[(1,5-dimethylpyrazol-4-yl)amino]pyrimidin-5-yl]phenyl]-N-[6-methyl-5-(trifluoromethyl)-3-pyridyl]acetamide], the pIC50 in assay [1] and in assay [2] was 5.00 to 10.00 throughout.
With `COc1ncc(NC(=O)Cc2ccc(-c3cnc4[nH]nc(Cl)c4c3)cc2)cc1C(F)(F)F` [Compound P-0230, 2-[4-(3-chloro-1H-pyrazolo[3,4-b]pyridin-5-yl)phenyl]-N-[6-methoxy-5-(trifluoromethyl)-3-pyridyl]acetamide], the pIC50 in assay [1] and in assay [2] was 5.00 to 10.00 throughout.
With `O=C(Cc1ccc(-c2cnc(Nc3cnn(C4CC4)c3)nc2)cc1)Nc1cncc(C(F)(F)F)c1` [Compound P-0231, 2-[4-[2-[(1-cyclopropylpyrazol-4-yl)amino]pyrimidin-5-yl]phenyl]-N-[5-(trifluoromethyl)-3-pyridyl]acetamide], the pIC50 in assay [1] and in assay [2] was 5.00 to 10.00 in each case.
`Cc1ncc(NC(=O)Cc2ccc(-c3cnc(Nc4cnn(C5CC5)c4)nc3)cc2)cc1C(F)(F)F` [Compound P-0232, 2-[4-[2-[(1-cyclopropylpyrazol-4-yl)amino]pyrimidin-5-yl]phenyl]-N-[6-methyl-5-(trifluoromethyl)-3-pyridyl]acetamide]: the pIC50 in assay [1] and in assay [2] was 5.00 to 10.00 each time.
Regarding `O=C(Cc1ccc(-c2cnc(Nc3cnn(C4CC4)c3)nc2)cc1)Nc1cnc(Cl)c(C(F)(F)F)c1` [Compound P-0233, N-[6-chloro-5-(trifluoromethyl)-3-pyridyl]-2-[4-[2-[(1-cyclopropylpyrazol-4-yl)amino]pyrimidin-5-yl]phenyl]acetamide], the pIC50 in assay [1] and in assay [2] was 5.00 to 10.00 in each case.
Take `COc1ncc(NC(=O)Cc2ccc(-c3cnc(Nc4cnn(C5CC5)c4)nc3)cc2)cc1C(F)(F)F` [Compound P-0234, 2-[4-[2-[(1-cyclopropylpyrazol-4-yl)amino]pyrimidin-5-yl]phenyl]-N-[6-methoxy-5-(trifluoromethyl)-3-pyridyl]acetamide]: the pIC50 in assay [1] and in assay [2] was 5.00 to 10.00 in each case.
Regarding `O=C(Cc1ccc(-c2cnc(Nc3cnn(C4CC4)c3)nc2)cc1)Nc1ccc(C(F)(F)F)nc1` [Compound P-0235, 2-[4-[2-[(1-cyclopropylpyrazol-4-yl)amino]pyrimidin-5-yl]phenyl]-N-[6-(trifluoromethyl)-3-pyridyl]acetamide], the negative logarithm of the IC50 (pIC50) in assay [1] and in assay [2] was 5.00 to 10.00 each time.
With `O=C(Cc1ccc(-c2cnc(Nc3cnn(C4CC4)c3)nc2)cc1)Nc1ccc(C(F)(F)F)cn1` [Compound P-0236, 2-[4-[2-[(1-cyclopropylpyrazol-4-yl)amino]pyrimidin-5-yl]phenyl]-N-[5-(trifluoromethyl)-2-pyridyl]acetamide], the pIC50 in assay [1] and in assay [2] was 5.00 to 10.00 throughout.
Take `O=C(Cc1ccc(-c2cnc(Nc3cnn(C4CC4)c3)nc2)cc1)Nc1cc(C(F)(F)F)ccn1` [Compound P-0237, 2-[4-[2-[(1-cyclopropylpyrazol-4-yl)amino]pyrimidin-5-yl]phenyl]-N-[4-(trifluoromethyl)-2-pyridyl]acetamide]: the negative-log IC50 (pIC50) in assay [1] and in assay [2] was 5.00 to 10.00 throughout.
Regarding `O=C(Cc1ccc(-c2cnc(Nc3cnn(C4CC4)c3)nc2)cc1F)Nc1cncc(C(F)(F)F)c1` [Compound P-0238, 2-[4-[2-[(1-cyclopropylpyrazol-4-yl)amino]pyrimidin-5-yl]-2-fluoro-phenyl]-N-[5-(trifluoromethyl)-3-pyridyl]acetamide], the pIC50 in assay [1] and in assay [2] was 5.00 to 10.00 each time.
With `Cc1ncc(NC(=O)Cc2ccc(-c3cnc(Nc4cnn(C5CC5)c4)nc3)cc2F)cc1C(F)(F)F` [Compound P-0239, 2-[4-[2-[(1-cyclopropylpyrazol-4-yl)amino]pyrimidin-5-yl]-2-fluoro-phenyl]-N-[6-methyl-5-(trifluoromethyl)-3-pyridyl]acetamide], the pIC50 in assay [1] and in assay [2] was 5.00 to 10.00 in each case.
In the case of `O=C(Cc1ccc(-c2cnc(Nc3cnn(C4CC4)c3)nc2)cc1F)Nc1cnc(Cl)c(C(F)(F)F)c1` [Compound P-0240, N-[6-chloro-5-(trifluoromethyl)-3-pyridyl]-2-[4-[2-[(1-cyclopropylpyrazol-4-yl)amino]pyrimidin-5-yl]-2-fluoro-phenyl]acetamide], the negative logarithm of the IC50 (pIC50) in assay [1] and in assay [2] was 5.00 to 10.00 each time.
`COc1ncc(NC(=O)Cc2ccc(-c3cnc(Nc4cnn(C5CC5)c4)nc3)cc2F)cc1C(F)(F)F` [Compound P-0241, 2-[4-[2-[(1-cyclopropylpyrazol-4-yl)amino]pyrimidin-5-yl]-2-fluoro-phenyl]-N-[6-methoxy-5-(trifluoromethyl)-3-pyridyl]acetamide]: the pIC50 in assay [1] and in assay [2] was 5.00 to 10.00 each time.
Consider `O=C(Cc1ccc(-c2cnc(Nc3cnn(C4CC4)c3)nc2)cc1F)Nc1ccc(C(F)(F)F)nc1` [Compound P-0242, 2-[4-[2-[(1-cyclopropylpyrazol-4-yl)amino]pyrimidin-5-yl]-2-fluoro-phenyl]-N-[6-(trifluoromethyl)-3-pyridyl]acetamide], for which the pIC50 in assay [1] and in assay [2] was 5.00 to 10.00 throughout.
Regarding `O=C(Cc1ccc(-c2cnc(Nc3cnn(C4CC4)c3)nc2)cc1F)Nc1ccc(C(F)(F)F)cn1` [Compound P-0243, 2-[4-[2-[(1-cyclopropylpyrazol-4-yl)amino]pyrimidin-5-yl]-2-fluoro-phenyl]-N-[5-(trifluoromethyl)-2-pyridyl]acetamide], the pIC50 in assay [1] and in assay [2] was 5.00 to 10.00 throughout.
Take `O=C(Cc1ccc(-c2cnc(Nc3cnn(C4CC4)c3)nc2)cc1F)Nc1cc(C(F)(F)F)ccn1` [Compound P-0244, 2-[4-[2-[(1-cyclopropylpyrazol-4-yl)amino]pyrimidin-5-yl]-2-fluoro-phenyl]-N-[4-(trifluoromethyl)-2-pyridyl]acetamide]: the negative-log IC50 (pIC50) in assay [1] and in assay [2] was 5.00 to 10.00 throughout.
